Reference: patent publication US8835440B2, “Cyclic pyrimidin-4-carboxamides as CCR2 receptor antagonists for treatment of inflammation, asthma and COPD” (Boehringer Ingelheim International GmbH, priority 2008, dated 2014)

Target: T1, CCR2 (Homo sapiens, UniProt P41597)
T1 construct: Membranes were prepared from THP-1 cells; endogenous in cells; host or cells: THP-1 cells (membrane preparation)
T1 sequence (P41597 1-360 isoform P41597-2): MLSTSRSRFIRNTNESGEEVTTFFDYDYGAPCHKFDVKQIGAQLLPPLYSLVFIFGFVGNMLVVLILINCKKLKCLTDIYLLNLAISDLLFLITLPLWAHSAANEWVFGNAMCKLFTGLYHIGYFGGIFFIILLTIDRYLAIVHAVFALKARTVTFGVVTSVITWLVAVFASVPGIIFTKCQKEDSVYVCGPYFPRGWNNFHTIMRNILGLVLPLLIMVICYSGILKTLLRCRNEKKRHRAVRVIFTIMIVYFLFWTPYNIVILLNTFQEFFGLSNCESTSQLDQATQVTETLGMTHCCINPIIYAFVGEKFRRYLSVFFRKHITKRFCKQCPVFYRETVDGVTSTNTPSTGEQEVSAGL
Assay: CCR2 receptor membrane binding assay ([125I]MCP-1, THP-1 cell membranes, SPA beads)
Conditions: for Ki: dissociation constant hKi, [125I]MCP-1 binding to THP-1 membranes; for remaining activity at 10 µM: @ 10 μM test compound, THP-1 membranes, read-out: CCR2 % ctrl @ 10 μM
Description: The above exemplary substances have been tested for binding to CCR2 using a binding assay as outlined herein below:
THP-1 cells (human acute monocytic leukaemia cells) were cultured under standardized conditions at 37° C. and 5% CO2 in a humidified incubator. THP-1 cells were cultivated in RPMI 1640 medium (Gibco 21875) containing 1% MEM-NEAA (Gibso 11140) 2 mM L-glutamine, 1.5 g/L sodium bicarbonate, 4.5 g/L glucose, 10 mM HEPES and 1.0 mM sodium pyruvate, 90%; 10% fetal calf serum (FCS Gibco 10500-064).
Membranes were prepared from THP-1 cells. THP-1 cells were centrifuged at 300×g at 4° C. for 10 min. The cell pellet was resuspendet in Phosphate Buffer Saline (PBS, including 10 μM Pefabloc and a protease inhibitor mix ‘complete’, Boehringer Mannheim (1 tablet/50 ml)), to a concentration of […]. The membrane preparation was performed by disrupting the cells by nitrogen […] (at 50 bar, for 1 h) in a “Nitrogen Bombe” (Parr Instrument). Cell debris was removed by centrifugation (800×g at 4° C., 1 min). The supernatant was centrifuged at 80000×g, 4° C. for 30 min to sediment the cell membranes. Usually 50 mg of protein (Bradford assay) were yielded from 1×10E9 cells. The membranes were resuspendet in 25 mM HEPES, 25 mM MgCl2, 1 mM CaCl2, 10% Glycerine for storage in aliquots at −80° C. in 25 mM HEPES, 25 mM MgCl2, 1 mM CaCl2, 10% Glycerine and stored at −80° C.
Receptor Membrane Binding Assay:
Perkin Elmer NEX 332 Jod 125 MCP-1, Stock: 2200 Ci/mmol solved in 2000 μl assay buffer, stored at −20° C. THP-1 membrane were adjusted with 25 mM HEPES, pH 7.2; 5 mM MgCl2; 0.5 mM CaCl2; 0.2% BSA assay buffer to a concentration of […]. Amersham Biosciences PVT-WGA Beads (RPNQ0001) were adjusted with assay buffer to a concentration of 0.24 mg/30 μl. For preparation of the membrane-bead-suspension membranes and beads were incubated for 30 min at RT under rotation (60 rpm) with a ratio of 1:2. Test compounds dissolved in 100% DMSO to a concentration of 10 mM and are further diluted with 100% DMSO to 1 mM. All additional compound dilutions were obtained with assay buffer, final 1% DMSO. Compounds, membrane-bead-suspension and [125I]MCP-1 (ca. 25000 cpm/10 μl) were incubated. Bound radioactivity was determined by scintillation counter after 8 h. Determination of affinity of test compounds (dissociation constant hKi) is calculated by iterative fitting of experimental data using the “easy sys” program, which is based on law of mass action (Schittkowski K. (1994), Numerische Mathematik, Vol. 68, 129-142).

SMILES: Cc1c(NC[C@H]2CC[C@H](c3ccc(Cl)cc3)O2)ncnc1C(=O)N1CCC(N2CCC(N(C)S(C)(=O)=O)CC2)CC1 [Example 159wa]
- Ki: 33 nM

SMILES: Cc1c(NCc2ccc(C(C)(C)C)cc2)ncnc1C(=O)N1CCC(N2CCC(c3ccncc3)CC2)CC1 [Example 201]
- remaining activity at 10 µM: 6%
- Ki: 101 nM

SMILES: Cc1c(NCCc2ccc(C(C)C)cc2)ncnc1C(=O)N1CCC(N2CCC(O)CC2)CC1 [Example 106]
- remaining activity at 10 µM: 13%
- Ki: 405 nM

SMILES: Cc1nc(NC[C@H]2CCN(c3ccccc3)C2)c(C)c(C(=O)N2CCC(N3CCC(N(C)S(C)(=O)=O)CC3)CC2)n1 [Example 159]
- remaining activity at 10 µM: 4%
- Ki: 25 nM

SMILES: Cc1nc(NC[C@H]2CC[C@H](c3ccc(F)c(C)c3)O2)c(C)c(C(=O)N2CCC(N3CCC(N(C)S(C)(=O)=O)CC3)CC2)n1 [Example 159ya]
- Ki: 18 nM

SMILES: Cc1c(NCc2ccc(C(F)(F)F)cc2F)ncnc1C(=O)N1CCC(N2CCC(O)CC2)CC1 [Example 21]
- remaining activity at 10 µM: 51%
- Ki: 2660 nM

SMILES: Cc1c(NCc2ccc(Cl)c(C(F)(F)F)c2)ncnc1C(=O)N1CCC(N2CCCCC2)CC1 [Example 142]
- remaining activity at 10 µM: 8%
- Ki: 529 nM

SMILES: Cc1c(NCc2ccc(C(C)(C)C)cc2)ncnc1C(=O)N1CCC(N2CCCCC2)C1 (centres unmarked) [Example 250]
- remaining activity at 10 µM: 32%
- Ki: 1260 nM

SMILES: Cc1c(NCc2ccc(C(C)(C)C)cc2)ncnc1C(=O)N1CCC(NC2CCOCC2F)CC1 (centres unmarked) [Example 228d]
- remaining activity at 10 µM: 1%
- Ki: 91 nM

SMILES: COC1CCN(C2CCN(C(=O)c3ncnc(NCc4ccc(C(C)C)cc4)c3C)CC2)CC1 [Example 94]
- remaining activity at 10 µM: 8%
- Ki: 211 nM

SMILES: Cc1c(NCc2ccc(Cl)c(Cl)c2)ncnc1C(=O)N1CCC(N2CC[C@H](N(C)S(C)(=O)=O)C2)CC1 [Example 226]
- remaining activity at 10 µM: 36%
- Ki: 1170 nM

SMILES: CNC(=O)C1CN(C2CCN(C(=O)c3ncnc(NCc4ccc(Cl)c(Cl)c4)c3C)CC2)C1 [Example 193]
- remaining activity at 10 µM: 35%
- Ki: 1540 nM

SMILES: CCS(=O)(=O)N(C)C1CCN(C2CCN(C(=O)c3ncnc(NCc4ccc(Cl)c(F)c4)c3C)CC2)CC1 [Example 39]
- remaining activity at 10 µM: 2%
- Ki: 36 nM

SMILES: CCc1c(NCc2cccc(-c3ccccc3)c2)ncnc1C(=O)N1CCC(N2CCOCC2)CC1 [Example 276]
- remaining activity at 10 µM: 23%
- Ki: 1840 nM

SMILES: CCS(=O)(=O)N(C)C1CCN(C2CCN(C(=O)c3ncnc(NCc4ccc(Cl)c(Cl)c4)c3C)CC2)CC1 [Example 35]
- remaining activity at 10 µM: 5%
- Ki: 24 nM

SMILES: Cc1nc(NCc2ccc(C(C)(C)C)cc2)c(C)c(C(=O)N2CCC(N3CCC(N(C)S(C)(=O)=O)CC3)CC2)n1 [Example 83]
- remaining activity at 10 µM: 3%
- Ki: 43 nM

SMILES: Cc1ccc([C@H]2CC[C@@H](CNc3ncnc(C(=O)N4CCC(N5CCC(N(C)S(C)(=O)=O)CC5)CC4)c3C)O2)cc1 [Example 159jb]
- Ki: 39 nM

SMILES: COc1ccc(C2CCCC(CNc3ncnc(C(=O)N4CCC(N5CCC(N(C)S(C)(=O)=O)CC5)CC4)c3C)C2)cc1 (centres unmarked) [Example 159xa]
- Ki: 21 nM

SMILES: Cc1c(NCCc2ccc(Cl)c(Cl)c2)ncnc1C(=O)N1CCC(N2CCC(F)(F)CC2)CC1 [Example 164]
- remaining activity at 10 µM: 15%
- Ki: 353 nM

SMILES: Cc1c(NCc2ccc(C(C)(C)C)cc2)ncnc1C(=O)N1CCC(NC2CCOc3cccnc32)CC1 (centres unmarked) [Example 228gi]
- Ki: 1100 nM

SMILES: Cc1c(NCC2CCN(c3ccccc3)C2)ncnc1C(=O)N1CCC(N2CCOCC2)CC1 (centres unmarked) [Example 51]
- remaining activity at 10 µM: 13%
- Ki: 290 nM

SMILES: CO[C@H]1COCC[C@H]1NC1CCN(C(=O)c2ncnc(NC[C@H]3CCC[C@@H](c4ccccc4)C3)c2C)CC1 [Example 275dh]
- Ki: 3 nM

SMILES: Cc1c(NCC2CCCC(c3ccccc3)C2)ncnc1C(=O)N1CCC(N2CCC(O)CC2)CC1 (centres unmarked) [Example 114]
- remaining activity at 10 µM: 8%
- Ki: 62 nM

SMILES: Cc1nc(NCC2COc3ccccc3C2)c(C)c(C(=O)N2CCC(N3CCC(N(C)S(C)(=O)=O)CC3)CC2)n1 (centres unmarked) [Example 79]
- remaining activity at 10 µM: 10%
- Ki: 89 nM

SMILES: Cc1c(Oc2ccc(Cl)cc2)ncnc1C(=O)N1CCC(N2CCC(N(C)S(C)(=O)=O)CC2)CC1 [Example 290]
- remaining activity at 10 µM: 28%
- Ki: 1600 nM

SMILES: COC1CCN(C2CCN(C(=O)c3ncnc(NCc4ccc(Cl)c(F)c4)c3C)CC2)CC1 [Example 95]
- remaining activity at 10 µM: 2%
- Ki: 170 nM

SMILES: Cc1c(NCCc2ccc(Cl)c(Cl)c2)ncnc1C(=O)N1CCC(N2CC[C@@H](C(N)=O)C2)CC1 [Example 232]
- remaining activity at 10 µM: 34%
- Ki: 924 nM

SMILES: Cc1c(NCc2ccc(C(F)(F)F)c(Cl)c2)ncnc1C(=O)N1CCC(N2CCOCC2)CC1 [Example 47]
- remaining activity at 10 µM: 14%
- Ki: 222 nM

SMILES: Cc1nc(NCC2Cc3ccccc3C2)c(C)c(C(=O)N2CCC(N3CCC(N(C)S(C)(=O)=O)CC3)CC2)n1 [Example 86]
- remaining activity at 10 µM: 3%
- Ki: 39 nM

SMILES: Cc1c(NCc2ccc(C(C)(C)C)cc2)ncnc1C(=O)N1CCC(N2CCC[C@@H]2CC(=O)N(C)C)CC1 [Example 216]
- remaining activity at 10 µM: 59%
- Ki: 4280 nM

SMILES: Cc1c(NCCc2ccc(Cl)c(Cl)c2)ncnc1C(=O)N1CCC(N2CC[C@@H](O)[C@@H](O)C2)CC1 [Example 246]
- remaining activity at 10 µM: 2%
- Ki: 306 nM

SMILES: Cc1c(NCc2ccc(F)c(Cl)c2)ncnc1C(=O)N1CCC(N2CCC(O)CC2)CC1 [Example 111]
- remaining activity at 10 µM: 27%
- Ki: 464 nM

SMILES: Cc1c(NCc2ccc(C(C)(C)C)cc2)ncnc1C(=O)N1CCC(N2CCC(CNS(C)(=O)=O)CC2)CC1 [Example 199]
- remaining activity at 10 µM: 9%
- Ki: 534 nM

SMILES: Cc1c(NCc2ccc(Cl)c(F)c2)ncnc1C(=O)N1CCC(N2CCC(NS(C)(=O)=O)CC2)CC1 [Example 76]
- remaining activity at 10 µM: 12%
- Ki: 132 nM

SMILES: Cc1c(NCc2ccc(F)c(F)c2)ncnc1C(=O)N1CCC(N2CCOCC2)CC1 [Example 48]
- remaining activity at 10 µM: 26%
- Ki: 1780 nM

SMILES: Cc1c(NC[C@@H]2CCC[C@@H](c3ccccc3)C2)ncnc1C(=O)N1CCC(N2CCC(O)CC2)CC1 [Example 144]
- remaining activity at 10 µM: 7%
- Ki: 91 nM

SMILES: Cc1nc(NCC2CCC(c3ccc(C)c(F)c3)O2)c(C)c(C(=O)N2CCC(N3CCC(N(C)S(C)(=O)=O)CC3)CC2)n1 (centres unmarked) [Example 159ta]
- Ki: 27 nM

SMILES: Cc1ccc(CNc2ncnc(C(=O)N3CCC(N4CCC(N(C)S(C)(=O)=O)CC4)CC3)c2C)cc1F [Example 65]
- remaining activity at 10 µM: 8%
- Ki: 176 nM

SMILES: Cc1c(NCc2cccc(-c3ccccc3)c2)ncnc1C(=O)N1CCC(N2CCC(N(C)C)CC2)CC1 [Example 236]
- remaining activity at 10 µM: 14%
- Ki: 175 nM

SMILES: COc1ccc(CNc2ncnc(C(=O)N3CCC(N4CCC(N(C)S(C)(=O)=O)CC4)CC3)c2C)cc1 [Example 67]
- remaining activity at 10 µM: 27%
- Ki: 1420 nM

SMILES: Cc1c(NC[C@@H]2CCC[C@H](c3ccccc3)C2)ncnc1C(=O)N1CCC(N2CCC(N(C)S(C)(=O)=O)CC2)CC1 [Example 151]
- remaining activity at 10 µM: 7%
- Ki: 14 nM

SMILES: CO[C@@H]1CN(C2CCN(C(=O)c3ncnc(NCc4ccc(Cl)c(Cl)c4)c3C)CC2)CC[C@H]1NS(C)(=O)=O [Example 191]
- remaining activity at 10 µM: 20%
- Ki: 519 nM

SMILES: Cc1c(NCC2Cc3ccccc3O2)ncnc1C(=O)N1CCC(N2CCC(N(C)S(C)(=O)=O)CC2)CC1 (centres unmarked) [Example 159qb]
- Ki: 69 nM

SMILES: Cc1c(NCc2ccc(C(C)(C)C)cc2)ncnc1C(=O)N1CCC(N2CCC(C#N)CC2)CC1 [Example 202]
- remaining activity at 10 µM: 7%
- Ki: 292 nM
